From PubChem BioAssay (NCI)
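Test compounds were applied to cells in 96-well plates for 48 hours at 5 doses. GI50 is the concentration that inhibits growth by half. TGI is the concentration that stops growth completely.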

How the values were obtained:
Test in all cases: DTP human tumour cell line panel, 48 h
[1] = test system: IGROV1 ovarian
[2] = test system: OVCAR-4 ovarian
[3] = test system: NCI-H460 lung
[4] = test system: SK-OV-3 ovarian
[5] = test system: SF-268 CNS
[6] = test system: U251 CNS
[7] = test system: HCT-15 colon
[8] = test system: SF-295 CNS
[9] = test system: HOP-92 NSCLC
[10] = test system: UO-31 renal

| Structure (SMILES) | TGI [1] | TGI [2] | TGI [3] | TGI [4] | TGI [5] | TGI [6] | TGI [7] | TGI [8] | TGI [9] | TGI [10] | GI50 [1] | GI50 [2] | GI50 [3] | GI50 [4] | GI50 [5] | GI50 [6] | GI50 [7] | GI50 [8] | GI50 [9] | GI50 [10] |
| --- | --- | --- | --- | --- | --- | --- | --- | --- | --- | --- | --- | --- | --- | --- | --- | --- | --- | --- | --- | --- |
| C/C(CC(=O)CCC(=O)Nc1cccc(C(F)(F)F)c1)=N\NC(=O)NN | > 100 µM | > 100 µM | > 100 µM | > 100 µM | > 100 µM | > 100 µM | > 100 µM | > 100 µM | > 100 µM | > 100 µM |  |  |  |  |  |  |  |  |  |  |
| NC(Cc1c[nH]c2c(O)cccc12)C(=O)O (centres undefined) | > 100 µM | > 100 µM | > 100 µM | > 100 µM | > 100 µM | > 100 µM | > 100 µM | > 100 µM | > 100 µM | > 100 µM | > 100 µM | > 100 µM | > 100 µM | > 100 µM | > 100 µM | > 100 µM | > 100 µM | > 100 µM | > 100 µM | > 100 µM |
| CCOc1ccc(NC(=O)C(=O)CC(=O)c2c[n+](=O)c3cc(C)c(C)cc3n2[O-])cc1 | > 100 µM | > 100 µM | > 100 µM | > 100 µM | > 100 µM | > 100 µM | > 100 µM | > 100 µM | > 100 µM | > 100 µM |  |  |  |  |  |  |  |  |  |  |
| O=C(/C=C/C12c3ccccc3C(c3ccccc31)C1C(=O)NC(=O)C12)c1ccncc1 (centres undefined) | 8 µM | 9.7 µM | 4.76 µM | 26.7 µM | 8.48 µM | 3.34 µM | 3.94 µM | 7.54 µM | 6.27 µM | 4.8 µM | 2.39 µM | 2.65 µM | 2.16 µM | 13.2 µM | 2.46 µM | 1.62 µM | 1.46 µM | 2.59 µM | 1.94 µM | 1.48 µM |
| O=CN/C=C/c1cc(O)ccc1O | 71.4 µM | 32.2 µM | > 100 µM | > 90.5 µM | 37.5 µM | > 66 µM | 28.2 µM | > 100 µM | 25.6 µM | 46.3 µM |  |  |  |  |  |  |  |  |  |  |
| OCc1ccc(N2CCC2c2ccc(F)cc2)cc1Cl (centres undefined) | 0.742 µM | > 59.3 µM | 12.4 µM | > 89.1 µM | > 100 µM | > 46.5 µM | > 100 µM | 7.62 µM | 25.1 µM | 76.3 µM |  | 0.925 µM | 0.511 µM | 20.5 µM | 35 µM | 3.92 µM | 21.5 µM | 0.438 µM | 3.14 µM | 20.8 µM |
| COc1ccc2c(c1)/C(=C/c1c(C)nc3sc(C)nn13)C(=O)N2 | > 100 µM | > 100 µM | > 32.6 µM | > 27.5 µM | > 50.5 µM | > 100 µM | > 100 µM | 50.3 µM | > 77.8 µM | > 100 µM | 2.18 µM | 14.7 µM | 1.09 µM | 3.62 µM | 3.06 µM | 4.08 µM | 0.879 µM | 1.48 µM | 9.86 µM | 5.23 µM |
| CO[C@H](C(=O)[C@@H](O)[C@@H](C)O)[C@@H]1Cc2cc3cc(O[C@H]4C[C@@H](O[C@H]5C[C@@H](O)[C@H](O)C(C)O5)[C@H](O)C(C)O4)c(C)c(O)c3c(O)c2C(=O)[C@H]1O[C@H]1C[C@@H](O[C@H]2C[C@@H](O[C@H]3C[C@](C)(O)C(=O)C(C)O3)[C@@H](O)C(C)O2)[C@H](O)C(C)O1 (some centres undefined) | > 33.2 µM | 7.04 µM | > 33.2 µM | > 33.2 µM | > 33.2 µM | > 33.2 µM | > 33.2 µM | 6.12 µM | 0.801 µM | 1.6 µM | 0.132 µM | 0.124 µM | 0.0323 µM | 0.139 µM | 0.065 µM | 0.031 µM | 0.889 µM | 0.0828 µM | 0.0852 µM | 0.159 µM |
| Cc1nc2ccccc2c(N)c1-c1cc(C)c2c(C)nc3ccccc3c2n1 | 0.86 µM | 2.4 µM | 1.17 µM | 4.72 µM | 2.08 µM | 0.959 µM | 0.562 µM | 2.74 µM | 3.38 µM | 2.26 µM | 0.294 µM | 0.831 µM | 0.329 µM | 1.8 µM | 0.628 µM | 0.288 µM | 0.216 µM | 1.34 µM | 1.46 µM | 0.78 µM |
| NC(=O)c1cccc2cn(-c3ccc([C@@H]4CCCNC4)cc3)nc12 | 52.3 µM | 41.5 µM | 18.7 µM | 38.2 µM | 28.5 µM | 29 µM | 45.5 µM | 18.1 µM | 89.9 µM | 25.2 µM | 15.3 µM | 16.6 µM | 4 µM | 12.6 µM | 9.13 µM | 12.6 µM | 14.8 µM | 4.65 µM | 21.5 µM | 11.3 µM |
